In publication PMC4684214, “Timberol® Inhibits TAAR5-Mediated Responses to Trimethylamine and Influences the Olfactory Threshold in Humans” (PLoS ONE, 2015):

Target: T1, hOR51E1 (Homo sapiens, UniProt Q8TCB6)
T1 construct: gene OR51E1; recombinant receptor plasmid transfected in HANA3A cells; with G-alpha-olf, RTP1S and M3 muscarinic receptor
T1 sequence (Q8TCB6 1-318): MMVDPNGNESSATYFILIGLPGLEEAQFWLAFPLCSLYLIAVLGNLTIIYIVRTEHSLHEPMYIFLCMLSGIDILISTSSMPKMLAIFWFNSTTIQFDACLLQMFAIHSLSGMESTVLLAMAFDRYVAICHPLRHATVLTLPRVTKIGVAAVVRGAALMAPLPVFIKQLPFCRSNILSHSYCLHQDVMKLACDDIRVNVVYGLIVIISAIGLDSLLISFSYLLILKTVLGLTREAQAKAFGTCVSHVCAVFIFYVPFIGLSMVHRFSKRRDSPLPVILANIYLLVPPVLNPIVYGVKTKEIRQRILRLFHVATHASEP
Test: Cre-luciferase reporter gene assay (cAMP)
Format: cell-based
Conditions: agonist; M3 muscarinic receptor co-expressed; 37°C, 4 h
Excerpt: Cre-luciferase reporter gene assay (cAMP) on hOR51E1 | (B) nonanoic acid and hOR51E1

EC50: 103 ± 23.1 µM
SMILES: CCCCCCCCC(=O)O [nonanoic acid]
